Data on 3 molecules can be found in patent US8940756B2, “Dihydronaphthyridines and related compounds useful as kinase inhibitors for the treatment of proliferative diseases” (Deciphera Pharmaceuticals, Inc., priority 2012, dated 2015).

For assay [1], the target named is T1, c-KIT V654A kinase (Seq ID no. 2) (Homo sapiens, UniProt P10721, V654A).
T1 construct: V654A c-Kit (residues T544-V976 with N-terminal GST fusion, 47 nM); purchased deCODE Biostructures
As to the kind of experiment: c-KIT V654A Kinase Assay. The assay is classed as biochemical. To be noted: enzymatic assay, ATP 200 μM. As for the experimental part:
In this assay, the oxidation of NADH (measured by decrease in absorbance at 340 nm) was continuously monitored spectrophotometrically. […] The inhibition reaction was started by mixing serial diluted test compound with the above reaction mixture. The absorption at 340 nm was monitored continuously for 6 hours at 30° C. on Synergy 2 plate reader (BioTech).
The protein construct was prepared by deCODE Biostructures using procedures known in the art. The construct contains residues T544-V976 of cKit, an N-terminal tag, a GST-fusion sequence and a TEV cleavage site. This construct is identical to Seq ID no.

For assay [2], the target named is T2, c-KIT D816H kinase (Seq ID no. 3) (Homo sapiens, UniProt P10721, D816H).
T2 construct: GST (N); TEV cleavage site (N); purchased deCODE Biostructures
As to the kind of experiment: c-KIT D816H Kinase Assay. The assay is classed as biochemical. To be noted: enzymatic assay, ATP 200 μM.

Assay [3] addresses T3, c-KIT T670I kinase (Seq ID no. 6) (Homo sapiens, UniProt P10721, T670I).
T3 construct: GST (N); TEV cleavage site (N); purchased deCODE Biostructures
As to the kind of experiment: c-KIT T670I Kinase Assay. The assay is classed as biochemical. As to conditions: enzymatic assay, ATP 200 uM.

Assay [4] deals with Phospho-KIT (Tyr719) in GIST430 cells (Homo sapiens, UniProt P10721). As to the kind of experiment: GIST430 KIT Western Blot. The class given is cell-based. To be noted: 4 hours, read-out: pKIT suppression by western blot analysi GIST430.
The target in assay [5] is Phospho-KIT (Tyr719) in GIST48 cells (Homo sapiens, UniProt P10721). As to the kind of experiment: GIST48 KIT Western Blot. The class given is cell-based. To be noted: 4 hours, read-out: pKIT suppression by western blot analysi GIST48.
In assay [6] the target is T4, Phospho-KIT (Tyr719) in GIST882 cells (Homo sapiens, UniProt P10721, K642E).
T4 construct: endogenous in cells; host or cells: GIST882
As to the kind of experiment: GIST882 KIT Western Blot. The assay is classed as cell-based. To be noted: 4 hours, read-out: pKIT suppression by western blot analysi GIST 882. Here is the method:
GIST48, GIST430, and GIST882 cells were obtained from J. Fletcher (Brigham and Women's Hospital, Boston, Mass.). GIST T1 cells were obtained from B. Rubin (Cleveland Clinic, Cleveland, Ohio) and Professor Takahiro Taguchi (Kochi Medical School, Nankoku, Kochi, Japan). […] GIST430 cells were grown in Ham's F10 medium supplemented with 15% characterized fetal bovine serum (Invitrogen, Carlsbad, Calif.), 30 mg/L bovine pituitary extract (BD Biosciences, San Jose, Calif.), 0.5% Mito+ serum extender (BD Biosciences, San Jose, Calif.), 1 unit/mL penicillin G, 1 μg/ml streptomycin, and 0.29 mg/mL L-glutamine at 37° C., 5% CO2, 95% humidity. GIST T1 cells were grown in DMEM medium supplemented with 10% characterized fetal bovine serum (Invitrogen, Carlsbad, Calif.), 1 unit/mL penicillin G, 1 ng/ml streptomycin, and 0.29 mg/mL L-glutamine at 37° C., 5% CO2, and 95% humidity. Cells were allowed to expand until reaching 70-95% confluence at which point they were subcultured or harvested for assay use.
Two hundred fifty thousand cells were added per well in a 24-well tissue-culture treated plate. Cells were then incubated overnight at 37° C., 5% CO2, 95% humidity. Medium was aspirated, cells were washed with PBS, and serum-free RPMI1640 medium was added. A serial dilution of test compound was added to plates containing cells and plates were incubated for 4 hours at 37° C., 5% CO2, 95% humidity. Cells were washed with PBS, then lysed. Cell lysates were separated by SDS-PAGE and transferred to PVDF. Phospho-KIT (Tyr719) was detected using an antibody from Cell Signaling Technology (Beverly, Mass.), ECL Plus detection reagent (GE Healthcare, Piscataway, N.J.) and a Molecular Devices Storm 840 phosphorimager in fluorescence mode. Blots were stripped and probed for total KIT using an antibody from Santa Cruz Biotech (Santa Cruz, Calif.). IC50 values were calculated using Prism software (Graphpad, San Diego, Calif.).

SMILES strings stand for the structures.

T3 sequence (P10721 544-976 T670I): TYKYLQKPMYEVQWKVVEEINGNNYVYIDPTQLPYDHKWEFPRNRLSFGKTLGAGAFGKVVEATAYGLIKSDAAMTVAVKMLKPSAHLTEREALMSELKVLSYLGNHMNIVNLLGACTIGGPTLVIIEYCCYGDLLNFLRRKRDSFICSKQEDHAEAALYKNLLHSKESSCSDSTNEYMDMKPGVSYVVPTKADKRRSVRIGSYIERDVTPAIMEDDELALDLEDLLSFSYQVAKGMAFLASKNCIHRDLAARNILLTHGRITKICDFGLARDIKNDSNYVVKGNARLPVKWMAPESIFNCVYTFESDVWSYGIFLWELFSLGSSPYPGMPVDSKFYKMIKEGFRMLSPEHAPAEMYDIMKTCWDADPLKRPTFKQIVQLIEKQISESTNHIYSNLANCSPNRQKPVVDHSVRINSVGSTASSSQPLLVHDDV
T2 sequence (P10721 544-976 D816H): as the sequence (P10721 544-976 T670I) above, with I127T, D273H counted along it
T1 sequence (P10721 544-976 V654A): as the sequence (P10721 544-976 T670I) above, with V111A, I127T counted along it
Chain of Phospho-KIT (Tyr719) in GIST430 cells (P10721 with tags, fused parts or gaps DEL560-576/V654A, form open): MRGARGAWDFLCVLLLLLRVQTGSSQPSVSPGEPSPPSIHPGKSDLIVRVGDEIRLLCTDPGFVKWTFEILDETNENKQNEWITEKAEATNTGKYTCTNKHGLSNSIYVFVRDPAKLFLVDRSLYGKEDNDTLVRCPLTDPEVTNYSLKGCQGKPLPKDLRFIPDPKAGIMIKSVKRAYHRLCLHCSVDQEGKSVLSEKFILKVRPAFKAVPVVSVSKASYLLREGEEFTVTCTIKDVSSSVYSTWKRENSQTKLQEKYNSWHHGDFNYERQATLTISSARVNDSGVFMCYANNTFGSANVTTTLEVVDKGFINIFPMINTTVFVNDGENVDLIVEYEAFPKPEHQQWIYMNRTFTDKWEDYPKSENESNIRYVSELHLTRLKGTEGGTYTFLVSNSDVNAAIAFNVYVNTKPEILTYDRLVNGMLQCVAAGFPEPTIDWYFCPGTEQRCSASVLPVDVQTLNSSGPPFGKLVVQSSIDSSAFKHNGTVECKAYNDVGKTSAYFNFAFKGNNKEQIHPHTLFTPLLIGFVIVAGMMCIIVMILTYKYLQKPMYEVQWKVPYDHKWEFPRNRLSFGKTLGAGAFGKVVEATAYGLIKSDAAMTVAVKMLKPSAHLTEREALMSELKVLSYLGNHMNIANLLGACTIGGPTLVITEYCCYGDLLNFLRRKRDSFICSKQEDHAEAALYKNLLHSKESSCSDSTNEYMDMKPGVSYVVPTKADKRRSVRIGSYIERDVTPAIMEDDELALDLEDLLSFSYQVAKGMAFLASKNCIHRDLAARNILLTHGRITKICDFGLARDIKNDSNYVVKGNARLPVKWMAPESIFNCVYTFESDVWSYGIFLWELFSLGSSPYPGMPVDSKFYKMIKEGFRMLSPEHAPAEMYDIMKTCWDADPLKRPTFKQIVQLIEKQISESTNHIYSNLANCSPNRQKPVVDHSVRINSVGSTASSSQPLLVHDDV
Chain of Phospho-KIT (Tyr719) in GIST48 cells (P10721 whole entry V560D/D820A, form open): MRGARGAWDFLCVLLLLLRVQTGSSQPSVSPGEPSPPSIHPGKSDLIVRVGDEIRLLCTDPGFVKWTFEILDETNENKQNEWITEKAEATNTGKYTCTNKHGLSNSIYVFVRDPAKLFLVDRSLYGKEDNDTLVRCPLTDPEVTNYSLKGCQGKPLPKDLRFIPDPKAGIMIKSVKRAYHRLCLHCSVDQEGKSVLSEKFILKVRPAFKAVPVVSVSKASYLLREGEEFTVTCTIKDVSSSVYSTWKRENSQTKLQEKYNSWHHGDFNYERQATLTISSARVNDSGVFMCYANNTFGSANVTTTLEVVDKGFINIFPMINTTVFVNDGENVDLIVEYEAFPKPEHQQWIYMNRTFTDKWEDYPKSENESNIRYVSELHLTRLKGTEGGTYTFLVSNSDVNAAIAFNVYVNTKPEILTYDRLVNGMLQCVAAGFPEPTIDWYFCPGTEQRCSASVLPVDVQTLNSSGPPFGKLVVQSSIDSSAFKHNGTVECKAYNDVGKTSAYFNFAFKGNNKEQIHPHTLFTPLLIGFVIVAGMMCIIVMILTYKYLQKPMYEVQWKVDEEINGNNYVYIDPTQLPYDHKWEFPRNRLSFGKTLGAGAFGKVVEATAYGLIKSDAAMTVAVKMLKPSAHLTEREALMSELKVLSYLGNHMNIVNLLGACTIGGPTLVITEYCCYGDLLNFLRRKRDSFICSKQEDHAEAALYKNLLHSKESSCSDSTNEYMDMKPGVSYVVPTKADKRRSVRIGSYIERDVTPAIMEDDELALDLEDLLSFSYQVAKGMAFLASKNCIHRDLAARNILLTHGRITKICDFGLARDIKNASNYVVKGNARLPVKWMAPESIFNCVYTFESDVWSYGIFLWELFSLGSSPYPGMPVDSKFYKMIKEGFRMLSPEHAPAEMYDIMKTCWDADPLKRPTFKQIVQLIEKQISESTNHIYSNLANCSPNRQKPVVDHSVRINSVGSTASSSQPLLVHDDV
T4 sequence (P10721 26-976 K642E): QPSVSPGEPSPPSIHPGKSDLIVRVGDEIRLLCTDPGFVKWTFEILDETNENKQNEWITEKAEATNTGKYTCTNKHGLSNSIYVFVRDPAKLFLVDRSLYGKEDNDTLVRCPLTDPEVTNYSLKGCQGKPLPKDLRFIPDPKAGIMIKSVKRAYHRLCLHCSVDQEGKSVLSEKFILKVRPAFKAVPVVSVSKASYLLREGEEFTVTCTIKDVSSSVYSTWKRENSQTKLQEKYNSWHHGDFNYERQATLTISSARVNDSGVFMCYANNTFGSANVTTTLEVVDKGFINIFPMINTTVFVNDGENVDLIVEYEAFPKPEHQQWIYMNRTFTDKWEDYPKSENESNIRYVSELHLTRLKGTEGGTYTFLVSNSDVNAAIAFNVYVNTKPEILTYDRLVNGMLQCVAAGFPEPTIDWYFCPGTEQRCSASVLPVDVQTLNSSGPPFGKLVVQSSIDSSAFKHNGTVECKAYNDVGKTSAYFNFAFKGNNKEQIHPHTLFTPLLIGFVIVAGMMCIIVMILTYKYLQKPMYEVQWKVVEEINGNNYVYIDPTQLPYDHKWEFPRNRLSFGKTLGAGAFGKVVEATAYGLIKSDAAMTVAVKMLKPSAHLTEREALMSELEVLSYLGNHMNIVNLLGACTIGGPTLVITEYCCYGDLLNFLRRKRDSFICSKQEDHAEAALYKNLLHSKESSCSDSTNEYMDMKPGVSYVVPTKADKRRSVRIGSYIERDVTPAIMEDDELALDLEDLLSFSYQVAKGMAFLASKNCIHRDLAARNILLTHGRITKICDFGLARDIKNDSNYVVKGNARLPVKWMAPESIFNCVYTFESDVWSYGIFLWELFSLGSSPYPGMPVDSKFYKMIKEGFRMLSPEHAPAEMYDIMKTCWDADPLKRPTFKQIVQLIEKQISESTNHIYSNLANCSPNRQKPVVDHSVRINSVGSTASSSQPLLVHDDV

Regarding `CCn1c(=O)c(-c2cc(NC(=O)Nc3ccccc3)c(F)cc2Cl)cc2cnc(N)cc21` [Example 21, 1-(5-(7-amino-1-ethyl-2-oxo-1,2-dihydro-1,6-naphthyridin-3-yl)-4-chloro-2-fluorophenyl)-3-phenylurea], the IC50 in assay [1] was less than 0.01 µM; in assay [2] it was less than 0.01 µM; in assay [3], less than 0.01 µM; in assay [4], less than 0.01 µM; in assay [5], 0.01 to 0.1 µM; in assay [6], 0.01 to 0.1 µM.
As to `CCn1c(=O)c(-c2cc(NC(=O)Nc3cccc(CN4CCN(C)CC4)c3)c(F)cc2Cl)cc2cnc(NC)cc21` [Example 79, 1-(4-chloro-5-(1-ethyl-7-(methylamino)-2-oxo-1,2-dihydro-1,6-naphthyridin-3-yl)-2-fluorophenyl)-3-(3-((4-methylpiperazin-1-yl)methyl)phenyl)urea], the IC50 was 0.1 to 1 µM in assay [1]; 0.01 to 0.1 µM in assay [2]; 0.01 to 0.1 µM in assay [3]; 0.01 to 0.1 µM in assay [4]; 0.01 to 0.1 µM in assay [5]; more than 1 µM in assay [6].
`CCn1c(=O)c(-c2cc(NC(=O)Nc3cc(F)cc(CN4CCN(C)CC4)c3)c(F)cc2Cl)cc2cnc(NC)cc21` [Example 88, 1-(4-chloro-5-(1-ethyl-7-(methylamino)-2-oxo-1,2-dihydro-1,6-naphthyridin-3-yl)-2-fluorophenyl)-3-(3-fluoro-5-((4-methylpiperazin-1-yl)methyl)phenyl)urea]: the IC50 lay within 0.01 to 0.1 µM in assay [1]; 0.01 to 0.1 µM in assay [2]; 0.01 to 0.1 µM in assay [3]; 0.01 to 0.1 µM in assay [4]; 0.01 to 0.1 µM in assay [5]; 0.1 to 1 µM in assay [6].
